Data on 19 compounds can be found in PubChem BioAssay (NCI).

Among the test systems are SNB-19 CNS; HT29 colon; TK-10 renal; IGROV1 ovarian; SR leukemia; M14 melanoma; RPMI-8226 leukemia; OVCAR-4 ovarian; MCF7 breast; DU-145 prostate.
Holding throughout (assay): growth of human tumour cells (NCI), 48 h

Structures are written as SMILES.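 Protocol summary: plate cells (96-well), add compound at 5 concentrations, incubate 48 h, interpolate endpoints linearly. At the GI50, growth is halved. TGI: total growth inhibition.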

As for `O=C(c1ccccc1)C1OC12C(=O)Nc1c(Cl)cc(Cl)cc12` (configuration not stated), the TGI was greater than 100 µM in the test on SNB-19 CNS; greater than 100 µM in the test on HT29 colon; greater than 100 µM with TK-10 renal; greater than 100 µM with IGROV1 ovarian; 31.1 µM in the test with SR leukemia; greater than 82.4 µM in the test on M14 melanoma. The TGI in the test with RPMI-8226 leukemia was greater than 100 µM; in the test with OVCAR-4 ovarian, greater than 39.9 µM.

For the compound `O=c1ncc(F)cn1C1OC(CO)C(O)C1O` (configuration not stated), the TGI in the test on SNB-19 CNS was greater than 69 µM; with HT29 colon it was greater than 73.3 µM; with TK-10 renal, greater than 100 µM; in the test with IGROV1 ovarian, greater than 80 µM; in the test with SR leukemia it was greater than 46.8 µM; in the test with M14 melanoma, greater than 100 µM. Further, the TGI with RPMI-8226 leukemia and with OVCAR-4 ovarian was greater than 100 µM throughout.

For `CSc1nc(NC2OC(COC(C)=O)C(OC(C)=O)C(OC(C)=O)C2OC(C)=O)c2c(n1)OCC2=O` (configuration not stated), the TGI in the test on SNB-19 CNS, in the test on HT29 colon, in the test on TK-10 renal, with IGROV1 ovarian, with SR leukemia and with M14 melanoma was greater than 100 µM in each case. Besides, the TGI with RPMI-8226 leukemia and with OVCAR-4 ovarian was greater than 100 µM in each case.

On to `COC(=O)c1cc(O)c2cc3c(cc2c1-c1cc(OC)c(OC)c(OC)c1)OCO3`, for which the GI50 with MCF7 breast is 0.459 µM; with SNB-19 CNS, 3.57 µM; with TK-10 renal, 2.16 µM; with IGROV1 ovarian, 0.91 µM; in the test with M14 melanoma, 0.893 µM; in the test with OVCAR-4 ovarian, greater than 100 µM. For the same compound, in the test on DU-145 prostate, the GI50 was 2.16 µM. For the same compound, the TGI with MCF7 breast, in the test with SNB-19 CNS, with TK-10 renal, with IGROV1 ovarian, in the test with M14 melanoma and in the test on OVCAR-4 ovarian was greater than 100 µM each time. The same compound yielded a TGI with DU-145 prostate greater than 100 µM.

Take `Oc1ccc2ccccc2c1N=Nc1ccsc1`: the TGI in the test with SNB-19 CNS, in the test with HT29 colon, in the test on TK-10 renal, in the test on IGROV1 ovarian, with SR leukemia and in the test on M14 melanoma was greater than 100 µM throughout. In addition, the TGI in the test on RPMI-8226 leukemia and in the test with OVCAR-4 ovarian was greater than 100 µM throughout.

Turning to `[N-]=[N+]=NC(c1cn(C2CC(O)C(CO)O2)c(=O)[nH]c1=O)C(Cl)I` (configuration not stated), the TGI in the test with MCF7 breast, with SNB-19 CNS, in the test on HT29 colon, in the test on TK-10 renal, in the test with IGROV1 ovarian and with M14 melanoma was greater than 100 µM each time. Further, the TGI with RPMI-8226 leukemia, in the test on OVCAR-4 ovarian and in the test with DU-145 prostate was greater than 100 µM in each case.

Take `C/C(CC(=O)Nc1ccc(C)c(C)c1)=N\NC(N)=O`: the TGI in the test with HT29 colon, with TK-10 renal, in the test with IGROV1 ovarian, in the test with M14 melanoma and with RPMI-8226 leukemia was greater than 100 µM throughout.

Turning to `O=[P+](O)c1ccsc1`, the TGI with HT29 colon, in the test with TK-10 renal, with IGROV1 ovarian, in the test with M14 melanoma and with RPMI-8226 leukemia was greater than 100 µM throughout.

Turning to `O=C(c1ccccc1)C1OC1c1ccc([N+](=O)[O-])cc1` (configuration not stated), the GI50 was 3.16 µM in the test with MCF7 breast; 26.2 µM with SNB-19 CNS; 3.75 µM with HT29 colon; 6.1 µM with TK-10 renal; 3.01 µM in the test with IGROV1 ovarian; 2.98 µM in the test with M14 melanoma. The results for the GI50 in the test on RPMI-8226 leukemia and in the test on OVCAR-4 ovarian were 8.29 µM and 4.57 µM, respectively. For the same compound, the TGI with MCF7 breast was greater than 100 µM; in the test on SNB-19 CNS it was greater than 100 µM; with HT29 colon it was 14.5 µM; with TK-10 renal, 50.8 µM; with IGROV1 ovarian it was 11.6 µM; with M14 melanoma, 12.9 µM. In addition, the TGI with RPMI-8226 leukemia and in the test with OVCAR-4 ovarian was greater than 100 µM throughout.

`C[C@]12CC/C(=N\O)C=C1CC[C@@H]1C2CC[C@@]2(C)C1CC[C@@H]2OC1CCCCO1` (some centres not stated): the TGI with SNB-19 CNS was 33.1 µM; in the test on HT29 colon, 28.8 µM; in the test with TK-10 renal it was 42.2 µM; in the test on IGROV1 ovarian, greater than 100 µM; in the test with M14 melanoma it was 35.3 µM; with RPMI-8226 leukemia, 37.7 µM. Besides, in the test on OVCAR-4 ovarian, the TGI amounted to 31.9 µM.

In the case of `CO/N=C(\C)c1ccc(Nc2cc(-c3ccccc3)nc3ccc(OC)cc23)cc1`, the GI50 with MCF7 breast was 5.01 µM; in the test with SNB-19 CNS, 5.97 µM; in the test with HT29 colon, 5.33 µM; in the test with TK-10 renal it was 2.52 µM; in the test on IGROV1 ovarian, 4.56 µM; with M14 melanoma, 2.35 µM. Further, the GI50 in the test with RPMI-8226 leukemia is 2.79 µM; in the test with OVCAR-4 ovarian, 7.81 µM; with DU-145 prostate, 5.36 µM. Further, the TGI in the test with MCF7 breast was 24.4 µM; in the test with SNB-19 CNS, greater than 100 µM; in the test with HT29 colon it was greater than 100 µM; with TK-10 renal it was 6.85 µM; in the test with IGROV1 ovarian it was greater than 100 µM; in the test with M14 melanoma, 4.77 µM. The values for the TGI with RPMI-8226 leukemia, in the test on OVCAR-4 ovarian and in the test on DU-145 prostate were 9.64 µM, greater than 100 µM and 21.3 µM, respectively.

`COc1ccc(C2SCC(=O)N2NC(=O)c2ccc(NC(C)=O)cc2)c(OC)c1` (configuration not stated): the TGI with MCF7 breast, in the test on SNB-19 CNS, with HT29 colon, in the test on TK-10 renal, in the test on IGROV1 ovarian and in the test on M14 melanoma was greater than 100 µM throughout. The TGI in the test with RPMI-8226 leukemia, in the test with OVCAR-4 ovarian and with DU-145 prostate was greater than 100 µM in each case.

For `C=CC(=O)Nc1cc(C)ccc1Nc1nc(Nc2cc(OC)ncc2C)ncc1C(F)(F)F`, the GI50 is 0.864 µM in the test with MCF7 breast; 0.936 µM in the test on SNB-19 CNS; 0.122 µM in the test on HT29 colon; 0.416 µM with TK-10 renal; 0.244 µM in the test with IGROV1 ovarian; 0.0668 µM in the test on M14 melanoma. Further, the GI50 is 0.634 µM in the test on RPMI-8226 leukemia, 1.34 µM in the test with OVCAR-4 ovarian and 0.996 µM with DU-145 prostate. The TGI is greater than 32.8 µM with MCF7 breast; greater than 100 µM with SNB-19 CNS; greater than 100 µM with TK-10 renal; 1.25 µM in the test with IGROV1 ovarian; 0.686 µM in the test with M14 melanoma; greater than 25.3 µM with RPMI-8226 leukemia. Further, the TGI in the test with OVCAR-4 ovarian is greater than 100 µM; in the test with DU-145 prostate, 12.3 µM.

Turning to `O=C(CCN1CCN(c2ccccc2)CC1)N1CCc2c([nH]c3ccccc23)C1c1cccnc1` (configuration not stated), the TGI in the test on SNB-19 CNS is 66.7 µM; in the test on HT29 colon, 29 µM; with TK-10 renal, 18.8 µM; in the test with IGROV1 ovarian, greater than 100 µM; in the test with SR leukemia, 59 µM; in the test on M14 melanoma it was 31.2 µM. Moreover, the TGI with OVCAR-4 ovarian is 33 µM.

With `CN1C(=O)C2C3C=C4c5ccccc5N(c5ccccc5)C4(C2C1=O)[C@H]1C(=O)N(C)C(=O)[C@@H]31` (some centres not stated), the TGI in the test on SNB-19 CNS, in the test on HT29 colon, in the test on TK-10 renal, with SR leukemia, in the test on M14 melanoma and in the test on RPMI-8226 leukemia was greater than 100 µM throughout. This compound yielded a TGI in the test on OVCAR-4 ovarian greater than 100 µM.

For the compound `Cn1c2c(c3ccc([N+](=O)[O-])cc3c1=O)C(=O)c1ccccc1-2`, the GI50 in the test with MCF7 breast, with SNB-19 CNS, in the test with HT29 colon, in the test with TK-10 renal, in the test with IGROV1 ovarian and with OVCAR-4 ovarian was greater than 100 µM throughout. For the same compound, the GI50 in the test on DU-145 prostate is greater than 100 µM. Moreover, the TGI with MCF7 breast, with SNB-19 CNS, in the test on HT29 colon, with TK-10 renal, in the test on IGROV1 ovarian and with OVCAR-4 ovarian was greater than 100 µM throughout. This compound had a TGI with DU-145 prostate greater than 100 µM.

For the compound `COC(=O)C(C(=O)C(=O)Nc1ccc([N+](=O)[O-])cc1[N+](=O)[O-])c1nc2ccc(Cl)cc2[nH]c1=O` (configuration not stated), the TGI in the test on SNB-19 CNS, in the test with HT29 colon, with TK-10 renal, in the test with IGROV1 ovarian, with M14 melanoma and in the test with RPMI-8226 leukemia was greater than 100 µM throughout. This compound gave a TGI with OVCAR-4 ovarian greater than 100 µM.

For `CC(=O)C1C(c2ccc(N(C)C)cc2)c2cc3c(cc2OC1(C)O)OCO3` (configuration not stated), the TGI in the test on SNB-19 CNS was greater than 100 µM; with HT29 colon, 58.5 µM; with TK-10 renal it was greater than 100 µM; in the test with IGROV1 ovarian, greater than 100 µM; in the test on M14 melanoma, greater than 100 µM; with RPMI-8226 leukemia, 83.2 µM. The compound further displayed a TGI with OVCAR-4 ovarian greater than 100 µM.

Take `NCCCCCCCn1c2c(c3ccccc3c1=O)C(=O)c1ccccc1-2`: the GI50 with MCF7 breast was 1.1 µM; with SNB-19 CNS it was 1.86 µM; with HT29 colon, 1.29 µM; in the test with TK-10 renal it was 1.67 µM; in the test with IGROV1 ovarian it was 1.43 µM; in the test on M14 melanoma, 1.68 µM. In addition, the GI50 was 1.09 µM with RPMI-8226 leukemia, 2.34 µM in the test on OVCAR-4 ovarian and 0.915 µM in the test with DU-145 prostate. Moreover, the TGI in the test with MCF7 breast came out at 2.71 µM; with SNB-19 CNS it was 4.82 µM; in the test with HT29 colon, 2.6 µM; in the test with TK-10 renal, 3.29 µM; in the test on IGROV1 ovarian, 3.58 µM; in the test with M14 melanoma it was 3.06 µM. In addition, the values for the TGI with RPMI-8226 leukemia, in the test with OVCAR-4 ovarian and with DU-145 prostate were 2.62 µM, 6.58 µM and 2.12 µM, respectively.
